Target: T1, human V1A receptor (Homo sapiens, UniProt P37288)
T1 construct: expressed in transfected cells; host or cells: CHO cells (CHO-hV1A line provided by Marc Thibonnier, Case Western Reserve University)
Assay: V1A filter binding assay (screen 1.0), [3H]-AVP binding to CHO-hV1A membranes
Details: [3H]-AVP displacement, membranes of CHO cells stably expressing the human V1A receptor; Cheng-Prusoff
Description: 1.0 V1A Filter Binding Assay
Receptor binding assays were performed on cellular membranes prepared from CHO cells stably expressing the human V1A receptor, (CHO-hV1A). The CHO-hV1A cell line was kindly provided under a licensing agreement by Marc Thibonnier, Dept. of Medicine, Case Western Reserve University School of Medicine, Cleveland, Ohio. CHO-hV1A cells were routinely maintained at 37° C. in humidified atmosphere with 5% CO2 in DMEM/Hams F12 nutrient mix supplemented with 10% fetal bovine serum, 2 mM L-glutamine, 15 mM HEPES and 400 μg/ml G418. […] Confluent CHO-hV1A cells were washed with phosphate-buffered saline (PBS), harvested into ice cold PBS and centrifuged at 1,000 rpm. Cell pellets were stored at −80° C. until use. Cell pellets were thawed on ice and homogenised in membrane preparation buffer consisting of 50 mM Tris-HCl, pH 7.4, 5 mM MgCl2 and supplemented with a protease inhibitor cocktail, (Roche). […] The remaining pellet was homogenised and centrifuged as before. The supernatants were pooled and centrifuged at 25,000×g for 30 min at 4° C. The pellet was resuspended in freezing buffer consisting of 50 mM Tris-HCl, pH 7.4, 5 mM MgCl2 and 20% glycerol and stored in small aliquots at −80° C. until use. Protein concentration was determined using Bradford reagent and BSA as a standard. […]
Compounds were tested for their effects on [^3H]-AVP binding to CHO-hV1A membranes, (^3H-AVP; specific activity 65.5 Ci/mmol; NEN Life Sciences). […] The plates were sealed and counted on a TopCount Microplate Scintillation Counter (Packard Instruments). […] The radioligand binding data was analysed using a four parameter logistic equation with the min forced to 0%. […] Specific binding was calculated by subtracting the mean NSB cpm from the mean Total cpm. […] The inhibitory dissociation constant (Ki) was calculated using the Cheng-Prusoff equation: Ki=IC50/(1+[L]/Kd) where [L] is the concentration of ligand present in the well and Kd is the dissociation constant of the radioligand obtained from Scatchard plot analysis.

T1 sequence (P37288 whole entry): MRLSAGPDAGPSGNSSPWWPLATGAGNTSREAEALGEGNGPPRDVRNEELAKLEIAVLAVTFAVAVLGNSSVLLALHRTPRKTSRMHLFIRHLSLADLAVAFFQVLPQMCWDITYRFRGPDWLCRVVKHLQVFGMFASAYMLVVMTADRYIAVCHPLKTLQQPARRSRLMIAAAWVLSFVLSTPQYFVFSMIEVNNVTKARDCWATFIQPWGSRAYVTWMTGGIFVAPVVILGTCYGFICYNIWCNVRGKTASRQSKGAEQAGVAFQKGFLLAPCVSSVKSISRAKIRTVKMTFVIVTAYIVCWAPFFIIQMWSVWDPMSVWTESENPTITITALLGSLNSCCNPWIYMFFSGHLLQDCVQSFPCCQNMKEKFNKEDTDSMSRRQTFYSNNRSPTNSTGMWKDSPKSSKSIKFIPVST

Structure (SMILES) | Ki [nM]
Cc1cc(Cl)ccc1-n1c(C)nnc1C1CCN(c2ccccn2)CC1 [Example 9, 4-[4-(4-Chloro-2-methyl-phenyl)-5-methyl-4H-[1,2,4]triazol-3-yl]-3,4,5,6-tetrahydro-2H-[1,2′]bipyridinyl] | 3.32
Cc1cc(Cl)ccc1-n1c(Cn2nccn2)nnc1C1CCN(c2ccccn2)CC1 [Example 15, 4-[4-(4-Chloro-2-methyl-phenyl)-5-[1,2,3]triazol-2-ylmethyl-4H-[1,2,4]triazol-3-yl]-3,4,5,6-tetrahydro-2H-[1,2′]bipyridinyl] | 0.86
Clc1ccc(-n2c(Cn3nccn3)nnc2C2CCN(c3ccccn3)CC2)cc1 [Example 17, 4-[4-(4-Chloro-phenyl)-5-[1,2,3]triazol-2-ylmethyl-4H-[1,2,4]triazol-3-yl]-3,4,5,6-tetrahydro-2H-[1,2′]bipyridinyl] | 0.47
